Assays:
[1] = tested on: Echinochloa oryzoides (Ard.) Fritsch.; assay: Preemergence weed control under flooded paddy conditions, ECHORC (Watergrass (Calif.)); assay type: in vivo; details: preemergence, flooded paddy, rated 3-4 weeks after treatment
[2] = tested on: Cyperus iria; assay: Preemergence weed control under flooded paddy conditions, CYPIR (Rice Flatsedge); assay type: in vivo; details: preemergence, flooded paddy, rated 3-4 weeks after treatment
[3] = tested on: Cyperus serotinus, Rottb.; assay: Preemergence weed control under flooded paddy conditions, CYPSE (Flatsedge); assay type: in vivo; details: preemergence, rated 3-4 weeks after treatment
[4] = tested on: Monochoria vaginalis, Presl.; assay: Preemergence weed control under flooded paddy conditions, MOOVA (Monochoria); assay type: in vivo; details: preemergence, flooded paddy, rated 3-4 weeks after treatment
[5] = tested on: Sagittaria pygmaea, L.; assay: Preemergence weed control under flooded paddy conditions, SAGPY (Arrowhead (Pygmaea)); assay type: in vivo; details: preemergence, flooded paddy, rated 3-4 weeks after treatment
[6] = tested on: Oryza sativa, (L.) Tebonnet; assay: Rice tolerance to post-transplant applications under flooded paddy conditions (Example 187), ORYSAT (Rice, Tebonnet); details: rated 3-4 weeks after treatment
Further: meaning of each grade not given here.

| SMILES | herbicidal effect rating, ECHORC ([1]; Rate 0.0320 kg/ha) | herbicidal effect rating, ECHORC ([1]; Rate 0.0620 kg/ha) | herbicidal effect rating, ECHORC ([1]; Rate 0.1250 kg/ha) | herbicidal effect rating, ECHORC ([1]; Rate 0.2500 kg/ha) | herbicidal effect rating, ECHORC ([1]; Rate 0.5000 kg/ha) | herbicidal effect rating, CYPIR ([2]; Rate 0.0320 kg/ha) | herbicidal effect rating, CYPIR ([2]; Rate 0.0620 kg/ha) | herbicidal effect rating, CYPIR ([2]; Rate 0.1250 kg/ha) | herbicidal effect rating, CYPIR ([2]; Rate 0.2500 kg/ha) | herbicidal effect rating, CYPIR ([2]; Rate 0.5000 kg/ha) | herbicidal effect rating, CYPSE ([3]; Rate 0.0320 kg/ha) | herbicidal effect rating, CYPSE ([3]; Rate 0.1250 kg/ha) | herbicidal effect rating, CYPSE ([3]; Rate 0.2500 kg/ha) | herbicidal effect rating, CYPSE ([3]; Rate 0.5000 kg/ha) | herbicidal effect rating, MOOVA ([4]; Rate 0.0320 kg/ha) | herbicidal effect rating, MOOVA ([4]; Rate 0.0620 kg/ha) | herbicidal effect rating, MOOVA ([4]; Rate 0.1250 kg/ha) | herbicidal effect rating, MOOVA ([4]; Rate 0.2500 kg/ha) | herbicidal effect rating, MOOVA ([4]; Rate 0.5000 kg/ha) | herbicidal effect rating, SAGPY ([5]; Rate 0.0320 kg/ha) | further results |
| --- | --- | --- | --- | --- | --- | --- | --- | --- | --- | --- | --- | --- | --- | --- | --- | --- | --- | --- | --- | --- | --- |
| Cc1ccc(OC(C)(C)C(=O)OCCCl)c(-c2nsc3ccc(-n4c(=O)cc(C(F)(F)F)n(C)c4=O)cc23)c1 [Example 544, Propionic acid, 2-{{2-{5-[3,6-dihydro-3-methyl-2,6-dioxo-4-(trifluoromethyl)-1(2H)-pyrimidinyl]-1,2-benzisothiazol-3-yl}-p-tolyl}oxy}-2-methyl-, 2-chloroethyl ester] | 5.4 | 5.6 | 6.4 | 9.0 | 9.0 | 9.0 | 9.0 | 9.0 | 9.0 | 9.0 | 9.0 | 7.0 | 9.0 | 4.0 | 9.0 | 9.0 | 9.0 | 9.0 | 9.0 | 7.0 | herbicidal effect rating, SAGPY ([5]; Rate 0.0620 kg/ha): 4.0; herbicidal effect rating, SAGPY ([5]; Rate 0.1250 kg/ha): 8.0; herbicidal effect rating, SAGPY ([5]; Rate 0.2500 kg/ha): 9.0; herbicidal effect rating, SAGPY ([5]; Rate 0.5000 kg/ha): 9.0; herbicidal effect rating ORYSAT ([6]; Rate 0.0320 kg/ha): 4.0; herbicidal effect rating ORYSAT ([6]; Rate 0.0620 kg/ha): 9.0; herbicidal effect rating ORYSAT ([6]; Rate 0.1250 kg/ha): 9.0; herbicidal effect rating ORYSAT ([6]; Rate 0.2500 kg/ha): 9.0; herbicidal effect rating ORYSAT ([6]; Rate 0.5000 kg/ha): 8.0 |
| Cc1ccc(OC(C)(C)C(=O)OCC(F)(F)F)c(-c2nsc3ccc(-n4c(=O)cc(C(F)(F)F)n(C)c4=O)cc23)c1 [Example 545, Propionic acid, 2-{{2-{5-[3,6-dihydro-3-methyl-2,6-dioxo-4-(trifluoromethyl)-1(2H)-pyrimidinyl]-1,2-benzisothiazol-3-yl}-p-tolyl}oxy}-2-methyl-, 2,2,2-trifluoroethyl ester] | 5.6 | 6.6 | 7.0 | 9.0 | 9.0 | 4.0 | 5.0 | 6.0 | 7.0 | 9.0 | 0.0 | 9.0 | 9.0 | 6.0 | 6.0 | 7.0 | 9.0 | 9.0 | 9.0 | 0.0 | herbicidal effect rating, CYPSE ([3]; Rate 0.0620 kg/ha): 0.0; herbicidal effect rating, SAGPY ([5]; Rate 0.0620 kg/ha): 0.0; herbicidal effect rating, SAGPY ([5]; Rate 0.1250 kg/ha): 4.0; herbicidal effect rating, SAGPY ([5]; Rate 0.2500 kg/ha): 7.0; herbicidal effect rating, SAGPY ([5]; Rate 0.5000 kg/ha): 9.0; herbicidal effect rating ORYSAT ([6]; Rate 0.0320 kg/ha): 2.0; herbicidal effect rating ORYSAT ([6]; Rate 0.0620 kg/ha): 2.0; herbicidal effect rating ORYSAT ([6]; Rate 0.1250 kg/ha): 4.0; herbicidal effect rating ORYSAT ([6]; Rate 0.2500 kg/ha): 9.0; herbicidal effect rating ORYSAT ([6]; Rate 0.5000 kg/ha): 9.0 |
| COCCOC(=O)C(C)(C)Oc1ccc(C)cc1-c1nsc2ccc(-n3c(=O)cc(C(F)(F)F)n(C)c3=O)cc12 [Example 546, Propionic acid, 2-{{2-{5-[3,6-dihydro-3-methyl-2,6-dioxo-4-(trifluoromethyl)-1(2H)-pyrimidinyl]-1,2-benzisothiazol-3-yl}-p-tolyl}oxy}-2-methyl-, 2-methoxyethyl ester] | 4.1 | 4.3 | 4.6 | 9.0 | 9.0 | 3.0 | 4.0 | 6.0 | 9.0 | 2.0 | 0.0 | 9.0 | 9.0 | 0.0 | 6.0 | 7.0 | 7.0 | 9.0 | 9.0 | 0.0 | herbicidal effect rating, CYPSE ([3]; Rate 0.0620 kg/ha): 0.0; herbicidal effect rating, SAGPY ([5]; Rate 0.0620 kg/ha): 0.0; herbicidal effect rating, SAGPY ([5]; Rate 0.1250 kg/ha): 4.0; herbicidal effect rating, SAGPY ([5]; Rate 0.2500 kg/ha): 9.0; herbicidal effect rating, SAGPY ([5]; Rate 0.5000 kg/ha): 9.0; herbicidal effect rating ORYSAT ([6]; Rate 0.0320 kg/ha): 2.0; herbicidal effect rating ORYSAT ([6]; Rate 0.0620 kg/ha): 3.0; herbicidal effect rating ORYSAT ([6]; Rate 0.1250 kg/ha): 4.0; herbicidal effect rating ORYSAT ([6]; Rate 0.2500 kg/ha): 7.0; herbicidal effect rating ORYSAT ([6]; Rate 0.5000 kg/ha): 6.0 |
| Cc1ccc(OC(C)(C)C(=O)OC(C)C)c(-c2nsc3ccc(-n4c(=O)cc(C(F)(F)F)n(C)c4=O)cc23)c1 [Example 547, Propionic acid, 2-{{2-{5-[3,6-dihydro-3-methyl-2,6-dioxo-4-(trifluoromethyl)-1(2H)-pyrimidinyl]-1,2-benzisothiazol-3-yl}-p-tolyl}oxy}-2-methyl-, isopropyl ester] | 5.4 | 5.4 | 5.6 | 9.0 | 9.0 | 7.0 | 7.0 | 9.0 | 9.0 | 9.0 | 6.0 | 8.0 | 7.0 | 0.0 | 9.0 | 9.0 | 9.0 | 9.0 | 9.0 | 2.0 | herbicidal effect rating, CYPSE ([3]; Rate 0.0620 kg/ha): 8.0; herbicidal effect rating, SAGPY ([5]; Rate 0.0620 kg/ha): 4.0; herbicidal effect rating, SAGPY ([5]; Rate 0.1250 kg/ha): 4.0; herbicidal effect rating, SAGPY ([5]; Rate 0.2500 kg/ha): 7.0; herbicidal effect rating, SAGPY ([5]; Rate 0.5000 kg/ha): 3.0; herbicidal effect rating ORYSAT ([6]; Rate 0.0320 kg/ha): 2.0; herbicidal effect rating ORYSAT ([6]; Rate 0.0620 kg/ha): 3.0; herbicidal effect rating ORYSAT ([6]; Rate 0.1250 kg/ha): 4.0; herbicidal effect rating ORYSAT ([6]; Rate 0.2500 kg/ha): 4.0; herbicidal effect rating ORYSAT ([6]; Rate 0.5000 kg/ha): 3.0 |

Reference: patent EP0908457B1, “3-(1,2-benzisothiazol- and isoxazol-5-Y1)-2,4(1H,3H)-pyrimidinedione or thione and 3-(1,2-benzisothiazol- and isoxazol-5-y1)-4(3H)-pyrimidinone or thione herbicidal agents” (BASF AKTIENGESELLSCHAFT, priority 1997, dated 1999)
